Test results as given in PubChem BioAssay (NCI).
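Following 48 hours of exposure in 96-well plates, responses at five concentrations were used to interpolate endpoints linearly. At the TGI there is no net growth.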

Tests used:
Assay in all cases: growth of human tumour cells (NCI), 48 h
U251 CNS = test system: U251 CNS
DU-145 prostate = test system: DU-145 prostate
NCI-H460 lung = test system: NCI-H460 lung
NCI/ADR-RES ovarian = test system: NCI/ADR-RES ovarian
CAKI-1 renal = test system: CAKI-1 renal
SK-MEL-28 melanoma = test system: SK-MEL-28 melanoma
MDA-MB-231 breast = test system: MDA-MB-231 breast
T-47D breast = test system: T-47D breast
SF-295 CNS = test system: SF-295 CNS
HL-60(TB) leukemia = test system: HL-60(TB) leukemia
MDA-MB-435 = test system: MDA-MB-435
MDA-N = test system: MDA-N
SR leukemia = test system: SR leukemia
OVCAR-4 ovarian = test system: OVCAR-4 ovarian
ACHN renal = test system: ACHN renal
UACC-62 melanoma = test system: UACC-62 melanoma
HOP-92 NSCLC = test system: HOP-92 NSCLC
KM12 colon = test system: KM12 colon
NCI-H522 lung = test system: NCI-H522 lung
NCI-H23 lung = test system: NCI-H23 lung
M14 melanoma = test system: M14 melanoma
OVCAR-8 ovarian = test system: OVCAR-8 ovarian
MOLT-4 leukemia = test system: MOLT-4 leukemia
SNB-19 CNS = test system: SNB-19 CNS
MALME-3M melanoma = test system: MALME-3M melanoma
COLO 205 colon = test system: COLO 205 colon
SK-OV-3 ovarian = test system: SK-OV-3 ovarian
HOP-62 NSCLC = test system: HOP-62 NSCLC
HCC-2998 colon = test system: HCC-2998 colon
HT29 colon = test system: HT29 colon
RPMI-8226 leukemia = test system: RPMI-8226 leukemia
K-562 leukemia = test system: K-562 leukemia
NCI-H226 lung = test system: NCI-H226 lung
OVCAR-5 ovarian = test system: OVCAR-5 ovarian
SNB-75 CNS = test system: SNB-75 CNS
SN12C renal = test system: SN12C renal
RXF 393 renal = test system: RXF 393 renal
UO-31 renal = test system: UO-31 renal
SF-268 CNS = test system: SF-268 CNS
OVCAR-3 ovarian = test system: OVCAR-3 ovarian
SK-MEL-5 melanoma = test system: SK-MEL-5 melanoma
SK-MEL-2 melanoma = test system: SK-MEL-2 melanoma
HCT-15 colon = test system: HCT-15 colon
PC-3 prostate = test system: PC-3 prostate
MCF7 breast = test system: MCF7 breast
SW-620 colon = test system: SW-620 colon
786-0 renal = test system: 786-0 renal
HCT-116 colon = test system: HCT-116 colon
EKVX NSCLC = test system: EKVX NSCLC
TK-10 renal = test system: TK-10 renal
UACC-257 melanoma = test system: UACC-257 melanoma
SF-539 CNS = test system: SF-539 CNS
HS 578T breast = test system: HS 578T breast
LOX IMVI melanoma = test system: LOX IMVI melanoma
A549 NSCLC = test system: A549 NSCLC
IGROV1 ovarian = test system: IGROV1 ovarian
CCRF-CEM leukemia = test system: CCRF-CEM leukemia
A498 renal = test system: A498 renal

In the case of `Cc1cc(=O)oc2c(CNC(CC(C)C)C(=O)O)c(O)ccc12` (centres undefined), the TGI (U251 CNS) is reported as over 100 µM, the TGI (DU-145 prostate) is reported as over 100 µM and the TGI (NCI-H460 lung) is reported as over 100 µM. For the same molecule, the TGI (NCI/ADR-RES ovarian) was over 100 µM, the TGI (CAKI-1 renal) was over 100 µM and the TGI (SK-MEL-28 melanoma) was over 100 µM. The TGI (MDA-MB-231 breast) was over 100 µM, the TGI (T-47D breast) was over 100 µM and the TGI (SF-295 CNS) was over 100 µM. The TGI (HL-60(TB) leukemia) was over 100 µM, the TGI (MDA-MB-435) was over 100 µM and the TGI (MDA-N) was over 100 µM. For the same molecule, the TGI (SR leukemia) was over 100 µM, the TGI (OVCAR-4 ovarian) was over 100 µM and the TGI (ACHN renal) was over 100 µM. The TGI (UACC-62 melanoma) was over 100 µM, the TGI (HOP-92 NSCLC) was over 100 µM and the TGI (KM12 colon) was over 100 µM. The TGI (NCI-H522 lung) was over 100 µM, the TGI (NCI-H23 lung) was over 100 µM and the TGI (M14 melanoma) was over 100 µM. For the same molecule, the TGI (OVCAR-8 ovarian) was over 100 µM, the TGI (MOLT-4 leukemia) was over 100 µM and the TGI (SNB-19 CNS) was over 100 µM. The TGI (MALME-3M melanoma) was over 100 µM, the TGI (COLO 205 colon) was over 100 µM and the TGI (SK-OV-3 ovarian) was over 100 µM. The TGI (HOP-62 NSCLC) was over 100 µM, the TGI (HCC-2998 colon) was over 100 µM and the TGI (HT29 colon) was over 100 µM. The TGI (RPMI-8226 leukemia) was over 100 µM, the TGI (K-562 leukemia) was over 100 µM and the TGI (NCI-H226 lung) was over 100 µM. For the same molecule, the TGI (OVCAR-5 ovarian) was over 100 µM, the TGI (SNB-75 CNS) was over 100 µM and the TGI (SN12C renal) was over 100 µM. It also gave a TGI (RXF 393 renal) of over 100 µM, a TGI (UO-31 renal) of over 100 µM and a TGI (SF-268 CNS) of over 100 µM. It also gave a TGI (OVCAR-3 ovarian) of over 100 µM, a TGI (SK-MEL-5 melanoma) of over 100 µM and a TGI (SK-MEL-2 melanoma) of over 100 µM. The TGI (HCT-15 colon) was over 100 µM, the TGI (PC-3 prostate) was over 100 µM and the TGI (MCF7 breast) was over 100 µM. For the same molecule, the TGI (SW-620 colon) was over 100 µM, the TGI (786-0 renal) was over 100 µM and the TGI (HCT-116 colon) was over 100 µM. It also gave a TGI (EKVX NSCLC) of over 100 µM, a TGI (TK-10 renal) of over 100 µM and a TGI (UACC-257 melanoma) of over 100 µM. The TGI (SF-539 CNS) was over 100 µM, the TGI (HS 578T breast) was over 100 µM and the TGI (LOX IMVI melanoma) was over 100 µM. For the same molecule, the TGI (A549 NSCLC) was over 100 µM and the TGI (IGROV1 ovarian) was over 100 µM.
`CC(=O)c1sc2[n+](c1C)C(=O)/C(=C\c1ccccc1Cl)S2` showed a TGI (U251 CNS) of 30.5 µM, a TGI (DU-145 prostate) of 33.6 µM and a TGI (NCI-H460 lung) of 30.2 µM. It also gave a TGI (NCI/ADR-RES ovarian) of 61.6 µM, a TGI (CAKI-1 renal) of 41 µM and a TGI (SK-MEL-28 melanoma) of 31.1 µM. It also gave a TGI (MDA-MB-231 breast) of 52.9 µM, a TGI (T-47D breast) of 36.2 µM and a TGI (SF-295 CNS) of 33 µM. It also gave a TGI (HL-60(TB) leukemia) of 39 µM, a TGI (MDA-MB-435) of 28.9 µM and a TGI (MDA-N) of 44 µM. The TGI (SR leukemia) was 52.5 µM, the TGI (OVCAR-4 ovarian) was over 100 µM and the TGI (ACHN renal) was 36 µM. For the same molecule, the TGI (UACC-62 melanoma) was 25.8 µM, the TGI (HOP-92 NSCLC) was over 100 µM and the TGI (KM12 colon) was 35.2 µM. It also gave a TGI (NCI-H522 lung) of 39 µM, a TGI (NCI-H23 lung) of 38.5 µM and a TGI (M14 melanoma) of 40 µM. The TGI (OVCAR-8 ovarian) was 77.5 µM, the TGI (MOLT-4 leukemia) was over 100 µM and the TGI (SNB-19 CNS) was 47.6 µM. It also gave a TGI (CCRF-CEM leukemia) of 91 µM, a TGI (MALME-3M melanoma) of 32.4 µM and a TGI (COLO 205 colon) of 28 µM. For the same molecule, the TGI (SK-OV-3 ovarian) was 47.7 µM, the TGI (HOP-62 NSCLC) was 47.7 µM and the TGI (HCC-2998 colon) was 37.6 µM. It also gave a TGI (HT29 colon) of 39.2 µM, a TGI (RPMI-8226 leukemia) of 49.3 µM and a TGI (K-562 leukemia) of 80.6 µM. The TGI (NCI-H226 lung) was 30.9 µM, the TGI (OVCAR-5 ovarian) was 50.1 µM and the TGI (SNB-75 CNS) was 65.9 µM. The TGI (SN12C renal) was 78.8 µM, the TGI (RXF 393 renal) was 47.4 µM and the TGI (UO-31 renal) was 34 µM. The TGI (SF-268 CNS) was 64.5 µM, the TGI (OVCAR-3 ovarian) was 35.8 µM and the TGI (SK-MEL-5 melanoma) was 23.4 µM. It also gave a TGI (SK-MEL-2 melanoma) of 55.8 µM, a TGI (HCT-15 colon) of 27.1 µM and a TGI (PC-3 prostate) of 49.9 µM. For the same molecule, the TGI (MCF7 breast) was 29.8 µM, the TGI (SW-620 colon) was 31.1 µM and the TGI (786-0 renal) was 38.2 µM. The TGI (HCT-116 colon) was 37.6 µM, the TGI (EKVX NSCLC) was 80.7 µM and the TGI (TK-10 renal) was 57.3 µM. For the same molecule, the TGI (A498 renal) was 74.3 µM, the TGI (UACC-257 melanoma) was 42.3 µM and the TGI (SF-539 CNS) was 44.7 µM. The TGI (HS 578T breast) was over 100 µM, the TGI (LOX IMVI melanoma) was 35.8 µM and the TGI (A549 NSCLC) was 43.6 µM. It also gave a TGI (IGROV1 ovarian) of 33.8 µM.
